# Test results taken from patent US20160304552A1, “MODIFIED NUCLEIC ACID MOLECULES AND USES THEREOF” (MODERNA THERAPEUTICS, INC., priority 2013, published 2016).
# Key:
# T7 RNA polymerase = T7 RNA polymerase (Escherichia phage T7, UniProt P00573); test: In vitro transcription yields of modified mRNA; type: biochemical; settings: for EPO In Vitro Transcription yield: EPO mRNA made with the modified NTP(s); for GCSF In Vitro Transcription yield: GCSF mRNA made with the modified NTP(s); for Luc In Vitro Transcription yield: Luciferase mRNA made with the modified NTP(s)
# Sequence of T7 RNA polymerase (P00573 whole entry): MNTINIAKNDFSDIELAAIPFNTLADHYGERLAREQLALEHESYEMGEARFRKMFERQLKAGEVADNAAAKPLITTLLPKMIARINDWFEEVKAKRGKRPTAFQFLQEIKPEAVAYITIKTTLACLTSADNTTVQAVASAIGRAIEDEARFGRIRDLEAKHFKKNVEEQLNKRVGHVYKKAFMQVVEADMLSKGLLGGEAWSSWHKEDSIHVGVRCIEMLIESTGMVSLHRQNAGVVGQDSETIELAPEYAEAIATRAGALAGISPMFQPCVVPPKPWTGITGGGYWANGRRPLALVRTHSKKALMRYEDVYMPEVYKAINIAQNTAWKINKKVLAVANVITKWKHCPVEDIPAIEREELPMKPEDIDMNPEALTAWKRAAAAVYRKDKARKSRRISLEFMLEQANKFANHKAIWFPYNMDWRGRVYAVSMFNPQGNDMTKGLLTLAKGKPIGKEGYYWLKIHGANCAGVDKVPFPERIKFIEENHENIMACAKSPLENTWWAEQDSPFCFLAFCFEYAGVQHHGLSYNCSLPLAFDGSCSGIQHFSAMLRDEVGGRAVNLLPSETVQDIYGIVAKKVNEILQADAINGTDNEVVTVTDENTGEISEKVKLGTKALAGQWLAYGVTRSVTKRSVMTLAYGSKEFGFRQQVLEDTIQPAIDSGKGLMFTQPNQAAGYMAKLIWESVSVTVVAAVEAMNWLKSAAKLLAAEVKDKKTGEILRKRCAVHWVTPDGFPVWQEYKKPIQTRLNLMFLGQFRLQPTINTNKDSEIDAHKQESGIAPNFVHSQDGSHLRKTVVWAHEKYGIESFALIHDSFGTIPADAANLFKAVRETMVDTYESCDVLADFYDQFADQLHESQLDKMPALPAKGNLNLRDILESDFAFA
# Method: The in vitro transcription reaction generates mRNA containing modified nucleotides or modified RNA. The input nucleotide triphosphate (NTP) mix is made in-house using natural and unnatural NTPs.
# A typical in vitro transcription reaction includes the following:
# Incubation at 37° C. for 3 hr-5 hrs.
# The crude IVT mix may be stored at 4° C. overnight for cleanup the next day. 1 U of RNase-free DNase is then used to digest the original template. After 15 minutes of incubation at 37° C., the mRNA is purified using Ambion's […]™ Kit (Austin, Tex.) following the manufacturer's instructions. This kit can purify up to 500 μg of RNA. Following the cleanup, the RNA is quantified using the NanoDrop and analyzed by agarose gel electrophoresis to confirm the RNA is the proper size and that no degradation of the RNA has occurred.
# Modified mRNAs in TE buffer (1 μl) are used for Nanodrop UV absorbance readings to quantitate the yield of each modified mRNA from an in vitro transcription reaction (UV absorbance traces are not shown).
# [1] = system: Rabbit Reticulocyte Lysate; test: In vitro translation screen, firefly Luciferase modRNA (luciferase assay, relative light units); type: biochemical; settings: Table 20; 250 ng modRNA, 45 min, 30° C.
# Method: (§1) The in vitro translation assay was done with the Rabbit Reticulocyte Lysate (nuclease-treated) kit (Promega, Madison, Wis.; Cat. #L4960) according to the manufacturer's instructions. The reaction buffer was a mixture of equal amounts of the amino acid stock solutions devoid of Leucine or Methionine provided in the kit.
# (§2) The modRNAs of firefly Luciferase, human GCSF and human EPO, harboring chemical modifications on either the bases or the ribose units, were diluted in sterile nuclease-free water to a final concentration of 250 ng in 2.5 ul (Stock 100 ng/μl). The modRNA (250 ng) was added to the mixture of freshly prepared Rabbit Reticulocyte Lysate and reaction buffer.
# After 45 min incubation, the reaction was stopped by placing the plate on ice. Aliquots of the in vitro translation reaction containing luciferase modRNA were transferred to white opaque polystyrene 96-well plates (Corning, Manassas, Va.; Cat. # CLS3912) and combined with 100 ul complete luciferase assay solution (Promega, Madison, Wis.). The volumes of the in vitro translation reactions were adjusted or diluted until no more than 2 million relative light units per well were detected for the strongest signal producing samples. […] The plate reader was a BioTek Synergy H1 (BioTek, Winooski, Vt.).
# [2] = system: Rabbit Reticulocyte Lysate; test: In vitro translation screen, human GCSF modRNA (GCSF ELISA); type: biochemical; settings: Table 20; 250 ng modRNA, 45 min, 30° C.
# Method: as §1, §2
# (§3) Aliquots of the in vitro translation reaction containing human GCSF modRNA or human EPO mRNA were transferred and analyzed with a human GCSF-specific or EPO ELISA kit (both from R&D Systems, Minneapolis, Minn.; Cat. #s SCS50, DEP00 respectively) according to the manufacturer instructions. All samples were diluted until the determined values were within the linear range of the human GCSF or EPO ELISA standard curve.
# [3] = system: Rabbit Reticulocyte Lysate; test: In vitro translation screen, human EPO modRNA (EPO ELISA); type: biochemical; settings: Table 20; 250 ng modRNA, 45 min, 30° C.
# Method: as §1, §2, §3
# HeLa cells [4] = test: Transfection in HeLa cells, Luciferase modRNA (luciferase assay, relative light units); type: cell-based, human; settings: Table 22, 83 ng modRNA, Lipofectamine 2000, 18 h to 22 h
# Method: (§4) The day before transfection, 20.000 HeLa cells (ATCC no. CCL-2; Manassas, Va.) were harvested by treatment with Trypsin-EDTA solution (LifeTechnologies, Grand Island, N.Y.) and seeded in a total volume of 100 ul EMEM medium (supplemented with 10% FCS and 1× Glutamax) per well in a 96-well cell culture plate (Corning, Manassas, Va.). The cells were grown at 37° C. in 5% CO2 atmosphere overnight. Next day, 83 ng of Luciferase modRNA or 250 ng of human GCSF modRNA, harboring chemical modifications on the bases or the ribose units, were diluted in 10 ul final volume of OPTI-MEM (LifeTechnologies, Grand Island, N.Y.). Lipofectamine 2000 (LifeTechnologies, Grand Island, N.Y.) was used as transfection reagent and 0.2 μl were diluted in 10 ul final volume of OPTI-MEM. After 5 min incubation at room temperature, both solutions were combined and incubated additional 15 min at room temperature. Then the 20 μl were added to the 100 ul cell culture medium containing the HeLa cells. The plates were then incubated as described before.
# After 18 h to 22 h incubation, cells expressing luciferase were lysed with 100 μl Passive Lysis Buffer (Promega, Madison, Wis.) according to manufacturer instructions. Aliquots of the lysates were transferred to white opaque polystyrene 96-well plates (Corning, Manassas, Va.) and combined with 100 ul complete luciferase assay solution (Promega, Madison, Wis.). The lysate volumes were adjusted or diluted until no more than 2 mio relative light units per well were detected for the strongest signal producing samples. […] The plate reader was a BioTek Synergy H1 (BioTek, Winooski, Vt.).
# HeLa cells [5] = test: Transfection in HeLa cells, human GCSF modRNA (GCSF ELISA of supernatant); type: cell-based; settings: Table 22, 250 ng modRNA, 18 h to 22 h
# Method: as §4
# (§5) After 18 h to 22 h incubation, cell culture supernatants of cells expressing human GCSF or human EPO were collected and centrifuged at 10.000 rcf for 2 min. The cleared supernatants were transferred and analyzed with a human GCSF-specific or EPO ELISA kit (both from R&D Systems, Minneapolis, Minn.; Cat. #s SCS50, DEP00, respectively) according to the manufacturer instructions. All samples were diluted until the determined values were within the linear range of the human GCSF or EPO ELISA standard curve.
# HeLa cells [6] = test: Transfection in HeLa cells, human EPO modRNA (EPO ELISA of supernatant); type: cell-based; settings: Table 22, 18 h to 22 h
# Method: as §4, §5
SMILES,EPO In Vitro Transcription yield (T7 RNA polymerase) [mg],GCSF In Vitro Transcription yield (T7 RNA polymerase) [mg],Luc In Vitro Transcription yield (T7 RNA polymerase) [mg],Luc Expression (RLUs) [1] [RLUs],GCSF Expression [2] [pg/mL],Epo Expression [3] [pg/mL],Luc Expression (RLUs) (HeLa cells [4]),GCSF Expression (HeLa cells [5]) [pg/mL],Epo Expression (HeLa cells [6]) [pg/mL]
"O=c1[nH]c(=O)n([C@@H]2O[C@H](COP(=O)(O)OP(=O)(O)OP(=O)(O)O)C(O)C2O)cc1Br (stereo in doubt) [Compound 00901013009, 5-Bromo-UTP]",0.2617,0.3566,0.3352,218500,21530,18220,2731,118600,210500
"Nc1ccn([C@@H]2O[C@H](COP(O)(=S)OP(=O)(O)OP(=O)(O)O)C(O)C2O)c(=O)n1 (stereo in doubt) [Compound 00902014001, Alpha-thio-CTP]",0.2669,0.2650,0.3352,142900,26930,17000,1845,285000.00,195400
"Nc1nc(=O)n([C@@H]2O[C@H](COP(=O)(O)OP(=O)(O)OP(=O)(O)O)C(O)C2O)cc1C(F)(F)F (stereo in doubt) [00901014003 (351), 5-Trifluoromethyl-CTP]",0.7886,0.7710,0.5097,23340,31510,10200,32250,1039000,668100
"O=c1ccn([C@@H]2O[C@H](COP(O)(=S)OP(=O)(O)OP(=O)(O)O)C(O)C2O)c(=O)[nH]1 (stereo in doubt) [Compound 00902013001, Alpha-thio-UTP]",0.2666,0.2605,0.3510,51180,20530,14260,937.0,73570,190700
"Cc1cn([C@@H]2O[C@H](COP(=O)(O)OP(=O)(O)OP(=O)(O)O)C(O)C2O)c(=S)[nH]c1=O (stereo in doubt) [00901013004 (4), 5-Methyl-2-thio-UTP]",0.8717,0.4682,0.7580,235,2319,1100,,16420,8333
"CCCn1cc([C@@H]2O[C@H](COP(=O)(O)OP(=O)(O)OP(=O)(O)O)C(O)C2O)c(=O)[nH]c1=O (stereo in doubt) [03601015004 (173), 1-Propyl-pseudo-UTP]",0.9920,0.5976,0.4971,140,1613,838,,10000,0.00
"CCn1cc([C@@H]2O[C@H](COP(=O)(O)OP(=O)(O)OP(=O)(O)O)C(O)C2O)c(=O)[nH]c1=O (stereo in doubt) [03601015003 (172), 1-Ethyl-pseudo-UTP]",1.095,0.5464,0.6304,122,5700,7894,130.50,209300,52780
"Nc1ncc2ncn([C@@H]3O[C@H](COP(=O)(O)OP(=O)(O)OP(=O)(O)O)C(O)C3O)c2n1 (stereo in doubt) [03601012004 (382), 2-Aminopurine-riboside TP]",0.0125,0.2919,0.0690,107000,8675,22180,713.50,39290,56980
"O=c1ccn([C@@H]2O[C@H](COP(=O)(O)OP(=O)(O)OP(=O)(O)O)C(O)C2O)c(=S)[nH]1 (stereo in doubt) [Compound 00901013008, 2-Thio-UTP]",0.3630,0.3359,0.2792,1181,3744,1894,423.00,214300,182600
"NC/C=C/c1cn([C@@H]2O[C@H](COP(=O)(O)OP(=O)(O)OP(=O)(O)O)C(O)C2O)c(=O)nc1N (stereo in doubt) [03601014009 (381), 5-Aminoallyl-CTP]",0.4943,0.4567,0.3471,887,1806,169,319.00,24290,3488
"COC(=O)COc1cn([C@@H]2O[C@H](COP(=O)(O)OP(=O)(O)OP(=O)(O)O)C(O)C2O)c(=O)[nH]c1=O (stereo in doubt) [00901013004 (348), UTP-5-oxyacetic acid Me ester]",0.3859,0.3836,0.6348,162,4388,544,,5714,8333
